Test results from paper PMC12059629, “N-Terminal domain homologs of the orange carotenoid protein increase quenching of cyanobacterial phycobilisomes” (Plant Physiology, 2024).

Target: T1, HCP4 (AnHCP4, holo-HCP4) (Nostoc sp. PCC 7120 = FACHB-418, UniProt Q8YMJ2)
T1 construct: gene all4941; C-terminal His-tag (pCDF-all4941-Ctag), expressed in E. coli BL21(DE3) with pAC-CANthipi; holo separated from apo on MonoQ
T1 sequence (Q8YMJ2 1-171): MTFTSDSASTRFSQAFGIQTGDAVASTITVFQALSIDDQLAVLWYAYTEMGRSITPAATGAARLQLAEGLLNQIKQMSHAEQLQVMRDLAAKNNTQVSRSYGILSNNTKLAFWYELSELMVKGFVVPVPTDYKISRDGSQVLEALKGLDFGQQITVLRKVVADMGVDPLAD
Experiment: holoprotein purified from carotenoid-producing E. coli; separated from apoprotein by anion exchange; absorbance at […] nm
Type: binding
Conditions: 50 mM Tris pH 8; 1:1 HCP4:CAN ratio used for quantification

## CC1=C(/C=C/C(C)=C/C=C/C(C)=C/C=C/C=C(C)/C=C/C=C(C)/C=C/C2=C(C)C(=O)CCC2(C)C)C(C)(C)CCC1=O [canthaxanthin]
  holoprotein purified from carotenoid-producing E. coli; separated from apoprotei: For HCP4, the holoprotein was eluted in the flow through and column wash
